In patent publication US20060099225A1 (priority 2004, published 2006):

Experiments:
Ebola virus (EBOV) = assay type: cell-based
[1] = system: 293T cells transfected with Ebola GP; assay type: cell-based, human

Molecule | EBOV infection, viral titer 48 hour post infection (Ebola virus (EBOV)) | virus production when cells recover in medium 4 h after treatment before infection (Ebola virus (EBOV)) | general cytotoxic effect, trypan blue exclusion (Vero E6 cells) | association of Ebola GP with rafts (detergent insoluble fraction) after pre-treatment [1]
CCCCC[C@@H](O)[C@H]1C(=O)O[C@H](C)[C@@H](O)/C=C/C=C/C=C/C=C/C=C(\C)[C@@H](O)C[C@H](O)C[C@H](O)C[C@H](O)C[C@H](O)C[C@H](O)C[C@@H]1O [filipin] | significant inhibition of EBOV infection | could produce large amounts of virus | cells were shown to be viable | –
methyl-β-cyclodextrin | – | – | – | almost complete removal of Ebola GP from rafts
nystatin | – | – | cells were shown to be viable | –
